# Test results from patent US8691790B2, “Therapy of neurological inflammatory diseases with (5'-deoxy-5'-adenosyl) cobamamide, recombinant human growth hormone, interleukins IL-1, IL-6, IL-11, epidermal growth factor, and physiotherapy” (priority 2009, dated 2014).
# “Also recorded” adds a separate entry of the source.
# How the values were obtained:
# [1] = test system: clinically definite MS patient in the Secondary Progressive stage of MS (SPMS); test: Scoping experiment in therapy with daily AdoCbl injections in one MS patient; type: in vivo, human
# Excerpt: The current patent, by Boucher, teaches the effective use of AdoCbl, by itself, for therapy of MS and other neurological inflammatory diseases and neurodegenerative diseases. […] Approximately 10 years ago the MS Patient was deemed to be in the Secondary Progressive Multiple Sclerosis (SPMS) stage due to the unremitting accumulation of disability. The MS Patient had loss of memory, cognitive impairment, loss of balance, fatigue, nocturia, not able to lift right foot from the floor, not able to raise right hand, not able to write with the right hand or to use a computer keyboard with the right hand, not able to grip with the right hand, not able to eat with a fork in the right hand, had poor heat tolerance, and was marginally ambulatory with a rollator. The MS patient was more affected on the right side than on the left, which prevented the use of a manual wheelchair. A scoping experiment in therapy with daily injections of 1000 mcg of AdoCbl was initiated. […] After three days, the injection size was increased to 5000 mcg of AdoCbl daily. The MS Patient had been making daily injections of 20 mg Copaxone, but these were stopped for about two months when the scoping experiment with daily injections of AdoCbl was initiated. […] The current patent, by Boucher, teaches that AdoCbl, by itself, provides effective therapy of MS and other inflammatory diseases, that AdoCbl facilitates remyelination, that AdoCbl stops secondary progression of disability in MS and allows extensive recovery from the symptoms of MS. The scoping experiment in therapy with AdoCbl was intended as a test of the etiological hypothesis that the enzyme ATP: Cob (I) alamin adenosyltransferase (ATR) in the CSF was a target of the immune system, which was a major factor in the development of MS. The results of the scoping experiment in therapy strongly support the proposed etiological hypothesis. There are missing details, potentially. Therefore, this patent is not to be restricted to addressing the proposed etiological hypothesis, as other etiological processes are possible.
# Prior art in the patent literature and in the published medical literature for therapy of MS has no example of therapy that stops and reverses the progressive accumulation of disability.
# A scoping experiment in therapy by parenteral injection of at a dose of between 1 μg and 2.5 g daily AdoCbl into a human subject with clinically definite MS in the secondary progressive stage was conducted.
# [2] = test system: Relapsing Remitting Multiple Sclerosis (RRMS); conditions: human trials reported in the literature; cited from earlier work
# [3] = test system: Chronic Progressive forms of MS; conditions: human trials reported in the literature; cited from earlier work
Compound,"ambulation ([1]; 5000 mcg of AdoCbl daily, patient was marginally ambulatory with a rollator before)","effect on progression / accumulation of disability in MS ([1]; AdoCbl by itself, single SPMS patient, 98% pure AdoCbl, for more than one year)","ability to raise right hand ([1]; daily injections of 1000 mcg of AdoCbl, after three days, single SPMS patient)","recovery of lost abilities and MS symptoms ([1]; injection size increased to 5000 mcg of AdoCbl daily after three days, Copaxone stopped for about two months, single SPMS patient)","recovery of abilities and symptoms (summary statement) ([1]; parenteral injection, dose of between 1 μg and 2.5 g daily AdoCbl, human subject, secondary progressive MS)",need for continued AdoCbl injections ([1]; single SPMS patient),effect on rate of relapse [2],benefit in chronic progressive MS [3]
"C/C1=C2/[N-]C([C@H](CC(N)=O)[C@@]2(C)CCC(=O)NC[C@@H](C)OP(=O)([O-])O[C@H]2[C@@H](O)[C@@H](n3cnc4cc(C)c(C)cc43)O[C@@H]2CO)[C@]2(C)N=C(/C(C)=C3N=C(/C=C4N=C1[C@@H](CCC(N)=O)C\4(C)C)[C@@H](CCC(N)=O)[C@]\3(C)CC(N)=O)[C@@H](CCC(N)=O)[C@]2(C)CC(N)=O.[CH2-][C@H]1O[C@@H](n2cnc3c(N)ncnc32)[C@@H](O)[C@@H]1O.[Co+3] [AdoCbl, (5′-deoxy-5′-adenosyl) cobamide]",ambulatory and does not need a wheelchair,dramatic therapeutic effect; also recorded: stops the accumulation of disability and substantially reverses disability; also recorded: stopped and reversed chronic progression of MS; also recorded: effectiveness in stopping and even reversing the progressive accumulation of neurological damage,able to raise their right hand above their head,"has recovered memory, cognition, normal balance, does not experience fatigue, no longer has nocturia, has recovered some ability with the right leg, is able to write with the right hand, use a computer keyboard with that right hand, and eat with a fork in the right hand","regained physical abilities lost years before, regained memory and cognitive abilities, and had complete recovery from many common symptoms of MS such as fatigue and poor balance",necessary to prevent relapse to the common symptoms of MS,–,–
Copolymer-1,–,–,–,–,–,–,effective in lowering the rate of relapse,no effective benefit
